Experimental data from patent US11236055B2 (Venenum Biodesign, LLC, priority 2016, dated 2022).

Experiments:
human TGR5 receptor = target: T1, human TGR5 receptor (Homo sapiens, UniProt Q8TDU6); assay: Human TGR5 cAMP production assay; format: cell-based; settings: human TGR5, luminescent cAMP assay; coded A-D; read-out: Human TGR5 Lum. cAMP Activity (EC50)
T1 construct: host or cells: CHO-K1 (hTGR5-CHO cells)
T1 sequence (Q8TDU6 1-330): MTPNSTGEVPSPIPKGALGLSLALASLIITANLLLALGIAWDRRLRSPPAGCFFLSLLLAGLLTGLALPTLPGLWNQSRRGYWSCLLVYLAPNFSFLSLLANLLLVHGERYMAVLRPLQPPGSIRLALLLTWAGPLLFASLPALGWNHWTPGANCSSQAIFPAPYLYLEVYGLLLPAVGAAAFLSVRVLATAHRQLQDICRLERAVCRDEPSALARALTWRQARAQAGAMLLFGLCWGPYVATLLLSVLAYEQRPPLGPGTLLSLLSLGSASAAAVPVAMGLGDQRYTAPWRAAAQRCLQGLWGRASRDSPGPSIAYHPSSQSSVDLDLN
Procedure, shortened: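 Intracellular cAMP read by luminescent enzyme-complementation (XS+) after overnight development, following 1 h room-temperature compound treatment of hTGR5-CHO-K1 cells in IBMX plus anti-cAMP antibody. Compounds tested as half-log dilution series; EC50 derived.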

mouse TGR5 receptor = target: T2, mouse TGR5 receptor (Mus musculus, UniProt Q80SS6); assay: Mouse TGR5 cAMP production assay (HTRF, Cisbio cAMP HiRange); format: cell-based; settings: HEK293-EBNA cells overexpressing mouse TGR5, HTRF cAMP HiRange; coded A-D
T2 construct: expressed in transfected cells; host or cells: HEK293-EBNA (293 c18, ATCC CRL10852), Hygromycin B selection
T2 sequence (Q80SS6 1-329): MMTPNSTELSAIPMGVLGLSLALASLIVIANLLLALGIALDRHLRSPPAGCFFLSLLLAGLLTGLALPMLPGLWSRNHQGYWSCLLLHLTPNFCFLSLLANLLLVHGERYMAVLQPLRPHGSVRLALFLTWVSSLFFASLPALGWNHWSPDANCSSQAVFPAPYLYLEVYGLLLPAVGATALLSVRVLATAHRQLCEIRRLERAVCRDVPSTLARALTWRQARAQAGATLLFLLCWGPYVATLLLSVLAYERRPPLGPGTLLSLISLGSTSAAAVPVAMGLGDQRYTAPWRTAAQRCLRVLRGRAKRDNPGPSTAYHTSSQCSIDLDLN
Procedure, shortened: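 cAMP read by HTRF competition after 1 h room-temperature compound exposure of mouse TGR5-overexpressing HEK293-EBNA cells. Cells were suspended in serum-free DMEM containing 500 μM IBMX; compounds ran as 12-point half-log dilutions in duplicate; EC50 derived.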

Row | EC50 (human TGR5 receptor) | EC50 (mouse TGR5 receptor) | Compound
1 | < 100 nM | 100 to 999 nM | Cc1cnccc1-c1cccc([C@H](C)N(CCCC(=O)N[C@@H](CO)C(=O)O)S(=O)(=O)c2cccc(Cl)c2C)c1 [Compound 21AI, (S)-2-(4-(3-chloro-2-methyl-N-((S)-1-(3-(3-methylpyridin-4-yl)phenyl)ethyl)phenylsulfonamido)butanamido)-3-hydroxypropanoic acid]
2 | < 100 nM | 100 to 999 nM | Cc1cnccc1-c1cccc([C@H](C)N(CCCC(=O)N2CCC[C@H]2C(=O)O)S(=O)(=O)c2cccc(Cl)c2C)c1 [Compound 21AJ, (S)-1-(4-(3-chloro-2-methyl-N-((S)-1-(3-(3-methylpyridin-4-yl)phenyl)ethyl)phenylsulfonamido)butanoyl)pyrrolidine-2-carboxylic acid]
3 | 1000 to 30000 nM | 1000 to 30000 nM | Cc1cnccc1-c1cccc([C@H](C)N(CCCC(=O)N(CC(=O)O)CC(=O)O)S(=O)(=O)c2cccc(Cl)c2C)c1 [Compound 21AK, (S)-2,2′-((4-(3-chloro-2-methyl-N-(1-(3-(3-methylpyridin-4-yl)phenyl)ethyl)phenylsulfonamido)butanoyl)azanediyl)diacetic acid]
4 | < 100 nM | 100 to 999 nM | Cc1cnccc1-c1cccc([C@H](C)N(CCCC(=O)NCCC(=O)NCC(=O)O)S(=O)(=O)c2cccc(Cl)c2C)c1 [Compound 21AM, (S)-2-(3-(4-(3-chloro-2-methyl-N-(1-(3-(3-methylpyridin-4-yl)phenyl)ethyl)phenylsulfonamido)butanamido)propanamido)acetic acid]
5 | 100 to 999 nM | 100 to 999 nM | Cc1cnccc1-c1cccc([C@H](C)N(CCOCC(=O)NCCS(=O)(=O)O)S(=O)(=O)c2cccc(Cl)c2C)c1 [Compound 21AO, (S)-2-(2-(2-(3-Chloro-2-methyl-N-(1-(3-(3-methylpyridin-4-yl)phenyl)ethyl)phenylsulfonamido)ethoxy)acetamido)ethanesulfonic acid]
6 | < 100 nM | 1000 to 30000 nM | Cc1cnccc1-c1cccc([C@@H](C)N(CCCC(=O)NCCS(=O)(=O)O)S(=O)(=O)c2cccc(Cl)c2C)c1 [Compound 21AP, (R)-2-(4-(3-Chloro-2-methyl-N-(1-(3-(3-methylpyridin-4-yl)phenyl)ethyl)phenylsulfonamido)butanamido)ethane-sulfonic acid]
7 | < 100 nM | < 100 nM | CCc1cnccc1-c1cccc([C@H](C)N(CCCC(=O)NCS(=O)(=O)O)S(=O)(=O)c2cccc(Cl)c2C)c1 [Compound 21AR, (S)-(4-(3-chloro-N-(1-(3-(3-ethylpyridin-4-yl)phenyl)ethyl)-2-methylphenylsulfonamido)butanamido)methanesulfonic acid]
8 | < 100 nM | 100 to 999 nM | CCc1cnccc1-c1cccc([C@H](C)N(CCCC(=O)NCCN)S(=O)(=O)c2cccc(Cl)c2C)c1 [Compound 21AS, (S)-N-(2-aminoethyl)-4-(3-chloro-N-(1-(3-(3-ethylpyridin-4-yl)phenyl)ethyl)-2-methylphenylsulfonamido)butanamide]
9 | < 100 nM | < 100 nM | CCc1cnccc1-c1cc(O)cc(C(C)(C)NS(=O)(=O)c2ccccc2C(F)(F)F)c1 [Compound 22, N-(2-(3-(3-Ethylpyridin-4-yl)-5-hydroxyphenyl)propan-2-yl)-2-(trifluoromethyl)benzenesulfonamide]
10 | 100 to 999 nM | 1000 to 30000 nM | Cc1ccccc1S(=O)(=O)N(CCCC(=O)NCCS(=O)(=O)O)[C@@H](C)c1cccc(-c2ccncc2O)c1 [Compound 22AA, (S)-2-(4-(N-(1-(3-(3-hydroxypyridin-4-yl)phenyl)ethyl)-2-methylphenylsulfonamido)butanamido)ethanesulfonic acid]
11 | < 100 nM | 1000 to 30000 nM | Cc1cnccc1-c1cccc(C(C)(C)N(CCCN)S(=O)(=O)c2cccc(Cl)c2C)c1 [Compound 23, N-(3-aminopropyl)-3-chloro-2-methyl-N-(2-(3-(3-methylpyridin-4-yl)phenyl)propan-2-yl)benzenesulfonamide]
12 | < 100 nM | 1000 to 30000 nM | Cc1cnccc1-c1cccc([C@H](C)N(CCCCN)S(=O)(=O)c2ccccc2C(F)(F)F)c1 [Compound 24, (S)—N-(4-aminobutyl)-N-(1-(3-(3-methylpyridin-4-yl)phenyl)ethyl)-2-(trifluoromethyl)Benzenesulfonamide]
13 | 1000 to 30000 nM | 100 to 999 nM | Cc1cnccc1-c1cccc(C(CCCCN)NS(=O)(=O)c2ccccc2C(F)(F)F)c1 (stereo not drawn) [Compound 24AA, N-(5-amino-1-(3-(3-methylpyridin-4-yl)phenyl)pentyl)-2-(trifluoromethyl)benzenesulfonamide]
14 | 100 to 999 nM | < 100 nM | CCc1cnccc1-c1cccc([C@H](C)N(CCCCN)S(=O)(=O)c2cccc(Cl)c2C)c1 [Compound 24AC, (S)-N-(4-aminobutyl)-3-chloro-N-(1-(3-(3-ethylpyridin-4-yl)phenyl)ethyl)-2-methylbenzenesulfonamide]
15 | < 100 nM | 100 to 999 nM | CCOC(=O)CCN/C(=N/C#N)NCCCN(C(C)(C)c1cccc(-c2ccncc2C)c1)S(=O)(=O)c1cccc(Cl)c1C [Compound 25A, Ethyl (E)-3-(3-(3-((3-chloro-2-methyl-N-(2-(3-(3-methylpyridin-4-yl)phenyl)propan-2-yl)phenyl)sulfonamido)propyl)-2-cyanoguanidino)propanoate]
16 | < 100 nM | 100 to 999 nM | Cc1cnccc1-c1cccc(C(C)(C)N(CCCNS(=O)(=O)CCN)S(=O)(=O)c2cccc(Cl)c2C)c1 [Compound 26, N-(3-((2-aminoethyl)sulfonamido)propyl)-3-chloro-2-methyl-N-(2-(3-(3-methylpyridin-4-yl)phenyl)propan-2-yl)benzenesulfonamide]
17 | < 100 nM | 100 to 999 nM | Cc1cnccc1-c1cccc(C(C)(C)N(CCCNS(=O)(=O)CCN2C(=O)c3ccccc3C2=O)S(=O)(=O)c2cccc(Cl)c2C)c1 [Compound 26A, 3-Chloro-N-(3-((2-(1,3-dioxoisoindolin-2-yl)ethyl)sulfonamido)propyl)-2-methyl-N-(2-(3-(3-methylpyridin-4-yl)phenyl)propan-2-yl)benzenesulfonamide]
18 | < 100 nM | 100 to 999 nM | COC(=O)CS(=O)(=O)NCCOCCNC(=O)CCCCN([C@@H](C)c1cccc(-c2ccncc2C)c1)S(=O)(=O)c1cccc(Cl)c1C [Compound 26AC]
19 | < 100 nM | < 100 nM | Cc1cnccc1-c1cccc([C@H](C)N(CCCCC(=O)NCCOCCNS(=O)(=O)CC(=O)O)S(=O)(=O)c2cccc(Cl)c2C)c1 [Compound 26AD]
20 | < 100 nM | < 100 nM | CCc1cnccc1-c1cccc([C@H](C)N(CCCCNS(=O)(=O)CCC(=O)O)S(=O)(=O)c2cccc(Cl)c2C)c1 [Compound 26AE, (S)-3-(N-(4-(3-chloro-N-(1-(3-(3-ethylpyridin-4-yl)phenyl)ethyl)-2-methylphenylsulfonamido)butyl)sulfamoyl)propanoic acid]
21 | < 100 nM | 100 to 999 nM | Cc1cnccc1-c1cccc(C(C)(C)N(CCCNc2ncc(C(=O)O)cn2)S(=O)(=O)c2cccc(Cl)c2C)c1 [Compound 27, 2-((3-((3-chloro-2-methyl-N-(2-(3-(3-methylpyridin-4-yl)phenyl)propan-2-yl)phenyl)sulfonamido)propyl)amino)pyrimidine-5-carboxylic acid]
22 | < 100 nM | < 100 nM | Cc1cnccc1-c1cccc(C(C)(C)N(CCCC(=O)NCCNc2ncc(C(=O)O)cn2)S(=O)(=O)c2cccc(Cl)c2C)c1 [Compound 27AA, 2-((2-(4-(3-chloro-2-methyl-N-(2-(3-(3-methylpyridin-4-yl)Phenyl)propan-2-yl)phenylsulfonamido)butanamido)ethyl)amino)pyrimidine-5-carboxylic acid]
23 | < 100 nM | 100 to 999 nM | Cc1cnccc1-c1cccc(C(C)(C)N(CCCC(=O)NCCNC(=N)N)S(=O)(=O)c2cccc(Cl)c2C)c1 [Compound 27AB, 4-(3-chloro-2-methyl-N-(2-(3-(3-methylpyridin-4-yl)phenyl)propan-2-yl)phenylsulfonamido)-N-(2-guanidinoethyl)butanamide]
24 | < 100 nM | 100 to 999 nM | Cc1cnccc1-c1cccc(C(C)(C)N(CCCNS(=O)(=O)CCNC(=N)N)S(=O)(=O)c2cccc(Cl)c2C)c1 [Compound 27AC, 3-chloro-N-(3-((2-guanidinoethyl)sulfonamido)propyl)-2-methyl-N-(2-(3-(3-methylpyridin-4-yl)phenyl)propan-2-yl)benzenesulfonamide]
